The values below come from US10912771B1, “Methods for the administration of certain VMAT2 inhibitors” (Neurocrine Biosciences, Inc., priority 2017, dated 2021).

A short description of data set [1]: Phase 1 open-label one-sequence crossover drug-interaction study: plasma pharmacokinetics of NBI-98854 and metabolites with and without rifampin. In kind it is in vivo, human. As to conditions: for half-life: read-out: Mean t1/2 (converted); for AUC(0-t) / Tlag / t1/2: Mean (SD). Here is the method:
Subjects received a single dose of 80 mg valbenazine tosylate on Days 1 and 11 between 0800 and 1000 hours. In addition, subjects received 600 mg rifampin (300 mg×2 capsules) once daily on Days 5 (after collection of the 96-hour PK sample) through 14 between 0830 and 1030 hours. Subjects were required to fast overnight before receiving the study drugs (valbenazine tosylate and rifampin). Subjects were discharged from the study center on Day 15 (final study day or upon early termination) after all safety evaluations and study assessments had been completed.
Safety was assessed throughout the study.
NBI-98854 40 mg capsules were administered orally. The dose of NBI-98854 was based on ditosylate salt (dose expressed as free base). Subjects received a single dose of NBI-98854 80 mg (as two 40 mg capsules) twice during the study, on Days 1 and 11.
Rifampin 300 mg capsules were administered orally. Subjects received a single dose of rifampin 600 mg (as two 300 mg capsules) on Days 5 (after collection of the 96 hour NBI-98854 PK sample) through 14 between 0830 and 1030 hours.
The following plasma PK parameters were calculated only for NBI-98854: • Apparent systemic clearance after oral administration (CL/F) • Apparent volume of distribution during the terminal phase after oral administration (Vz/F)
The last significant figure was rounded up if the digit to the right of it was >5, and was rounded down if the digit to the right of it was […].
The last significant figure was rounded up if the digit to the right of it was ≥5, and was rounded down if the digit to the right of it was ≤4.
An analysis of variance (ANOVA) model was used to compare AUC0-∞ and Cmax for NBI-98854 administered with rifampin (“test”) versus AUC0-∞ and Cmax for NBI-98854 alone (“reference”). The PK parameters for metabolites of NBI-98854 and rifampin were also evaluated. Safety data were summarized using descriptive statistics.

Data set [2] concerns the target T1, human VMAT1 transporter (Homo sapiens, UniProt P54219).
T1 construct: expressed in transfected cells
T1 sequence (P54219 1-525): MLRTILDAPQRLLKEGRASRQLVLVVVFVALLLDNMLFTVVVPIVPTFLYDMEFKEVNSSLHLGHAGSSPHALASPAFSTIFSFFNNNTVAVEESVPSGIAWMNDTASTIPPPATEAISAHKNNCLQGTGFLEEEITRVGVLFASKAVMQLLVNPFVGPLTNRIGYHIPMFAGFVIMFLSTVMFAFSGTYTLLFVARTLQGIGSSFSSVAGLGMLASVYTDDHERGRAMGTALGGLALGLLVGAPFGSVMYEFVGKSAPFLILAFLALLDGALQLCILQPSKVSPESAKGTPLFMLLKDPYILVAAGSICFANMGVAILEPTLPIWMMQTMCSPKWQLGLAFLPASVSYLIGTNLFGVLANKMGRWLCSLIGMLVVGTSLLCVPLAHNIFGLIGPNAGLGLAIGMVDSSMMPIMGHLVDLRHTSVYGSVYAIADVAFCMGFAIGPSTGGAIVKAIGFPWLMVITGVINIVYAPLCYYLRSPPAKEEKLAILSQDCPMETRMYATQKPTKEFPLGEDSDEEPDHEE
As to the kind of experiment: Uptake in cells expressing VMAT1. In kind it is cell-based. As to conditions: TBZ, VBZ and metabolites at concentrations up to 10 μM, listed as R,R,R-DHTBZ.

A short description of data set [3]: Ptosis, in vivo surrogate measure of pharmacological effect.
A short description of data set [4]: Prolactin release, in vivo surrogate for dopaminergic modulation.
Data set [5] concerns CYP enzymes. As to conditions: human.
The target in data set [6] is Serotonin 5-HT7 (Homo sapiens, UniProt P34969). As to the kind of experiment: Cerep screen, Serotonin 5-HT7. As to conditions: 1 or 10 μM final concentration; n=2.
Chain of Serotonin 5-HT7 (P34969 whole entry): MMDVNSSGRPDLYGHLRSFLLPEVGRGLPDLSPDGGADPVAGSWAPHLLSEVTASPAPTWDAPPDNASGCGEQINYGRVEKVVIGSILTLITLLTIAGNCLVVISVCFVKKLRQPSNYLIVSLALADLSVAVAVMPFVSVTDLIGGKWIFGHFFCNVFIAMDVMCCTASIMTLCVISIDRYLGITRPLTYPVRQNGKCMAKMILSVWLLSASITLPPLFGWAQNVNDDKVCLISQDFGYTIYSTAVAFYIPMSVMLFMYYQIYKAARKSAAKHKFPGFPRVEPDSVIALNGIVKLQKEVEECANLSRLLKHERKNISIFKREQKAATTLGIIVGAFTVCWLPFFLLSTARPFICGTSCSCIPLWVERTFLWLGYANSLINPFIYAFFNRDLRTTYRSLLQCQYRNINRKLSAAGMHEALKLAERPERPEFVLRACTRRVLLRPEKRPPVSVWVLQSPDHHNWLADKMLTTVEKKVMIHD
In data set [7] the target is T2, Serotonin 5-HT1A (Homo sapiens, UniProt P08908).
T2 sequence (P08908 1-422): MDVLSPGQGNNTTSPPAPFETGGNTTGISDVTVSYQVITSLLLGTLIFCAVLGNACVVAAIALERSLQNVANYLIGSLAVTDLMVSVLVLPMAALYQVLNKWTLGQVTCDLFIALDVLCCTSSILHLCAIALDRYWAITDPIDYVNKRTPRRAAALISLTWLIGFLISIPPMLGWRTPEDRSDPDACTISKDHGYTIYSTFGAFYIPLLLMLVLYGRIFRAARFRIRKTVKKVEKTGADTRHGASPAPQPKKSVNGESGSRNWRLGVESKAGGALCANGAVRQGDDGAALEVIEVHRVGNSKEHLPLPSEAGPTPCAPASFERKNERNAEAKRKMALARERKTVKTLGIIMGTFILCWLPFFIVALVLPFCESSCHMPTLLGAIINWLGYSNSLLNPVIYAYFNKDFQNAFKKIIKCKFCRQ
As to the kind of experiment: Cerep screen, Serotonin 5-HT1A. As to conditions: 1 or 10 μM final concentration; n=2.

Data set [8] concerns more than 80 targets (GPCRs, cell-surface monoamine transporters, ion channels including HERG). As to the kind of experiment: Cerep multi-target activity screen. As to conditions: receptors, monoamine transporters, and ion channels.
Where [9] appears, read: both sexes, human, plasma, oral, 80 mg.
[10] abbreviates: plasma metabolite NBI-98782, NBI-98854 80 mg + rifampin 600 mg, N = 11.
[11] abbreviates: plasma metabolite NBI-98782, NBI-98854 80 mg alone, N = 11.

“Also recorded” adds a separate entry of the source. Like-named read-outs stand apart in the source and are kept apart here.

Turning to `COc1cc2c(cc1OC)[C@H]1C[C@@H](O)[C@H](CC(C)C)CN1CC2` [NBI-98782, (2R, 3R,11bR)-3-isobutyl-9,10-dimethoxy-1,3,4,6,7,11b-hexahydro-2H-pyrido[2,1-a]isoquinolin-2-ol], the half-life in data set [1] (both sexes, human, oral, 80 mg, plasma analyte, NBI-98854 alone) is 19 h; in data set [1] (both sexes, human, oral, plasma analyte, NBI-98854 administered with rifampin), 12 h. For the same compound, the Tmax was 4 h in data set [1] (both sexes, human, oral, 80 mg, plasma analyte, NBI-98854 alone, read-out: Median tmax); 3 h in data set [1] (both sexes, human, oral, plasma analyte, NBI-98854 plus rifampin, read-out: Median tmax); 3.0 (0.50, 4.0) hr in data set [1] (plasma metabolite NBI-98782, NBI-98854 80 mg + rifampin 600 mg, N = 11, Median (min, max)); 4.0 (0.52, 18) hr in data set [1] (plasma metabolite NBI-98782, NBI-98854 80 mg alone, N = 11, Median (min, max)). Besides, the AUC(0-inf) in data set [1] (setting [9]) worked out at 689 ng·h/mL. For the same compound, in data set [1] (setting [9]), the peak concentration (Cmax) was determined as 21.5 ng/mL. Besides, the MRT in data set [1] (setting [9]) is 28 h. For the same compound, the AUC(0-t) stood at 364 ng·h/mL in data set [1] (both sexes, human, plasma, oral, 80 mg, plasma metabolite NBI-98782, NBI-98854 80 mg alone, N = 11, read-out: AUC0-24); 665 ng·h/mL in data set [1] (both sexes, human, plasma, oral, 80 mg, plasma metabolite NBI-98782, NBI-98854 80 mg alone, N = 11, read-out: AUC0-tlast); 115 ng·h/mL in data set [1] (both sexes, human, plasma, oral, plasma metabolite NBI-98782, NBI-98854 80 mg + rifampin 600 mg, N = 11, read-out: AUC0-24); 153 ng·h/mL in data set [1] (both sexes, human, plasma, oral, plasma metabolite NBI-98782, NBI-98854 80 mg + rifampin 600 mg, N = 11, read-out: AUC0-tlast). Besides, the values for the Tlag in data set [1] (setting [10]) and in data set [1] (setting [11]) were 0.23 (0.075) hr and 0.25 (0.16) hr, respectively. The t1/2 is given as 12 (1.7) hr in data set [1] (setting [10]) and 19 (2.3) hr in data set [1] (setting [11]). The “inhibition of uptake through VMAT1” value in data set [2] is “no significant inhibitory activity; also recorded: no significant effect”. Also, in data set [3], the induction of ptosis entry is recorded as “induced ptosis in an equivalent manner”. Further, the “increase in serum prolactin levels” value in data set [4] is “induced a similar increase in serum prolactin levels as TBZ”. In data set [5], the “enzymes involved in oxidative metabolism” value is recorded as “mediated primarily by CYP2D6 with contribution from CYP3A4/5”. Moreover, in data set [6], the “percent of control specific binding, Serotonin 5-HT7” value was determined as 3%. For the same compound, the “percent of control specific binding, Serotonin 5-HT1A” value in data set [7] worked out at 17%. The “affinity for more than 80 binding sites” value in data set [8] was “little to no affinity”.
